We go through seven cell lines from the supplement of paper PMC10307832.

What all share (assay): relative viability (nuclei count vs DMSO), 5 days (fraction); higher = more cells survive
Compound in assay [1]: C1=CC2=NC=CN=C2C=C1/C=C/3\C(=O)NC(=O)S3 + COc1cc2c(Oc3ccc(NC(=O)C4(C(=O)Nc5ccc(F)cc5)CC4)cc3F)ccnc2cc1OCCCN1CCOCC1 [Foretinib] (partner 0.25 µM)
Summed up: (§1)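 Dosing by pin tool came one day after lung cancer cell lines were seeded in 1536-well plates, using either one drug or a fixed anchor-drug dose plus five library-drug doses (not always all listed) in √10 steps. After 5 days, nuclei were counted on 4× images. Relative viability is treated-well nuclei count divided by vehicle-well nuclei count, and values are medians of duplicate plates.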

Compound in assay [2]: C1=CC2=NC=CN=C2C=C1/C=C/3\C(=O)NC(=O)S3 + CS(=O)(=O)CCNCc1ccc(-c2ccc3ncnc(Nc4ccc(OCc5cccc(F)c5)c(Cl)c4)c3c2)o1 [Lapatinib] (partner 2 µM)
In short, it runs like this:
as §1

Compound in assay [3]: CCN1CCN(c2ccc(Nc3cc(N(C)C(=O)Nc4c(Cl)c(OC)cc(OC)c4Cl)ncn3)cc2)CC1 [BGJ398] + COc1cccc2cc(-c3nc([C@H]4CC[C@H](C(=O)O)CC4)n4ncnc(N)c34)[nH]c12 [OSI-027] (partner 0.5 µM)
Summed up:
as §1

Compound in assay [4]: CCN1CCN(c2ccc(Nc3cc(N(C)C(=O)Nc4c(Cl)c(OC)cc(OC)c4Cl)ncn3)cc2)CC1 [BGJ398] + NC(=O)Nc1cc(-c2cccc(F)c2)sc1C(=O)N[C@H]1CCCNC1 [AZD7762] (partner 0.2 µM)
In short, it runs like this: as §1

Regarding NCI-H23, the relative viability in assay [1] (first compound 0.02 µM) was determined as 1.12; in assay [1] (first compound 0.06325 µM) it was 0.976; in assay [1] (first compound 0.2 µM), 1.02; in assay [1] (first compound 0.6325 µM) it was 0.902; in assay [1] (first compound 2 µM), 0.856; in assay [2] (first compound 0.02 µM), 0.887. The relative viability in assay [2] (first compound 0.06325 µM) is 1.12; in assay [2] (first compound 0.2 µM), 1.07; in assay [2] (first compound 0.6325 µM) it was 1.15; in assay [2] (first compound 2 µM), 0.759; in assay [3] (first compound 0.01 µM), 0.588; in assay [3] (first compound 0.03162 µM) it was 0.726. Also, the relative viability in assay [3] (first compound 0.1 µM) turned out to be 0.692; in assay [3] (first compound 0.3162 µM) it was 0.518; in assay [3] (first compound 1 µM), 0.569; in assay [4] (first compound 0.01 µM) it was 0.228; in assay [4] (first compound 0.03162 µM) it was 0.267; in assay [4] (first compound 0.1 µM), 0.252. Besides, the relative viability in assay [4] (first compound 0.3162 µM) came to 0.232; in assay [4] (first compound 1 µM) it was 0.225.
With NCI-H322M, the relative viability in assay [1] (first compound 0.02 µM) came out at 0.969; in assay [1] (first compound 0.06325 µM), 0.918; in assay [1] (first compound 0.2 µM), 0.932; in assay [1] (first compound 0.6325 µM) it was 0.906; in assay [1] (first compound 2 µM) it was 0.669; in assay [2] (first compound 0.02 µM), 0.428. The relative viability in assay [2] (first compound 0.06325 µM) is 0.573; in assay [2] (first compound 0.2 µM), 0.61; in assay [2] (first compound 0.6325 µM), 0.656; in assay [2] (first compound 2 µM) it was 0.368; in assay [3] (first compound 0.01 µM), 0.531; in assay [3] (first compound 0.03162 µM), 0.542. The relative viability stood at 0.627 in assay [3] (first compound 0.1 µM); 0.495 in assay [3] (first compound 0.3162 µM); 0.501 in assay [3] (first compound 1 µM); 0.689 in assay [4] (first compound 0.01 µM); 0.46 in assay [4] (first compound 0.03162 µM); 0.577 in assay [4] (first compound 0.1 µM). Further, the relative viability in assay [4] (first compound 0.3162 µM) amounted to 0.607; in assay [4] (first compound 1 µM), 0.601.
As for NCI-H358, the relative viability is 0.875 in assay [1] (first compound 0.02 µM); 0.648 in assay [1] (first compound 0.06325 µM); 0.672 in assay [1] (first compound 0.2 µM); 0.613 in assay [1] (first compound 0.6325 µM); 0.445 in assay [1] (first compound 2 µM); 0.554 in assay [2] (first compound 0.02 µM). Further, the relative viability in assay [2] (first compound 0.06325 µM) was found to be 0.497; in assay [2] (first compound 0.2 µM) it was 0.461; in assay [2] (first compound 0.6325 µM), 0.359; in assay [2] (first compound 2 µM), 0.274; in assay [3] (first compound 0.01 µM) it was 0.611; in assay [3] (first compound 0.03162 µM), 0.793. Besides, the relative viability in assay [3] (first compound 0.1 µM) amounted to 0.81; in assay [3] (first compound 0.3162 µM), 0.798; in assay [3] (first compound 1 µM), 1; in assay [4] (first compound 0.03162 µM) it was 0.473; in assay [4] (first compound 0.1 µM) it was 0.591; in assay [4] (first compound 0.3162 µM), 0.507. The relative viability in assay [4] (first compound 1 µM) is 0.725.
Consider NCI-H460, for which the relative viability in assay [1] (first compound 0.02 µM) was 0.936; in assay [1] (first compound 0.06325 µM), 0.833; in assay [1] (first compound 0.2 µM), 1.03; in assay [1] (first compound 0.6325 µM), 0.953; in assay [1] (first compound 2 µM) it was 1; in assay [2] (first compound 0.02 µM), 0.832. The relative viability in assay [2] (first compound 0.06325 µM) was 1.15; in assay [2] (first compound 0.2 µM), 1.03; in assay [2] (first compound 0.6325 µM), 0.815; in assay [2] (first compound 2 µM), 0.689; in assay [3] (first compound 0.01 µM), 0.63; in assay [3] (first compound 0.03162 µM), 0.733. Moreover, the relative viability in assay [3] (first compound 0.1 µM) stood at 0.81; in assay [3] (first compound 0.3162 µM), 0.642; in assay [3] (first compound 1 µM), 0.719; in assay [4] (first compound 0.01 µM), 0.73; in assay [4] (first compound 0.03162 µM), 0.655; in assay [4] (first compound 0.1 µM), 0.593. Moreover, the relative viability in assay [4] (first compound 0.3162 µM) was 0.53; in assay [4] (first compound 1 µM) it was 0.621.
With NCI-H596, the relative viability in assay [1] (first compound 0.02 µM) was found to be 0.856; in assay [1] (first compound 0.06325 µM) it was 0.863; in assay [1] (first compound 0.2 µM), 1.05; in assay [1] (first compound 0.6325 µM), 0.742; in assay [1] (first compound 2 µM) it was 0.899; in assay [2] (first compound 0.02 µM), 1.1. In addition, the relative viability in assay [2] (first compound 0.06325 µM) was found to be 1.25; in assay [2] (first compound 0.2 µM), 1.04; in assay [2] (first compound 0.6325 µM), 1.06; in assay [2] (first compound 2 µM) it was 1.04; in assay [3] (first compound 0.01 µM) it was 0.761; in assay [3] (first compound 0.03162 µM), 0.693. Also, the relative viability in assay [3] (first compound 0.1 µM) is 0.655; in assay [3] (first compound 0.3162 µM) it was 0.648; in assay [3] (first compound 1 µM), 0.621; in assay [4] (first compound 0.01 µM), 1.1; in assay [4] (first compound 0.03162 µM), 0.993; in assay [4] (first compound 0.1 µM), 0.893. For the same cell line, the relative viability in assay [4] (first compound 0.3162 µM) was found to be 0.911; in assay [4] (first compound 1 µM) it was 0.799.
Consider NCI-H647, for which the relative viability in assay [1] (first compound 0.02 µM) came out at 1.1; in assay [1] (first compound 0.06325 µM), 1.39; in assay [1] (first compound 0.2 µM) it was 1.17; in assay [1] (first compound 0.6325 µM) it was 1.11; in assay [1] (first compound 2 µM), 1.21; in assay [2] (first compound 0.02 µM) it was 1.06. The relative viability turned out to be 1.75 in assay [2] (first compound 0.06325 µM); 1.15 in assay [2] (first compound 0.2 µM); 0.957 in assay [2] (first compound 0.6325 µM); 0.903 in assay [2] (first compound 2 µM); 0.554 in assay [3] (first compound 0.01 µM); 0.765 in assay [3] (first compound 0.03162 µM). Besides, the relative viability in assay [3] (first compound 0.1 µM) stood at 0.724; in assay [3] (first compound 0.3162 µM) it was 0.638; in assay [3] (first compound 1 µM), 0.536; in assay [4] (first compound 0.01 µM), 0.642; in assay [4] (first compound 0.03162 µM) it was 0.489; in assay [4] (first compound 0.1 µM) it was 0.497. The relative viability amounted to 0.326 in assay [4] (first compound 0.3162 µM) and 0.373 in assay [4] (first compound 1 µM).
NCI-H650: the relative viability amounted to 1.01 in assay [1] (first compound 0.02 µM); 1.09 in assay [1] (first compound 0.06325 µM); 1.04 in assay [1] (first compound 0.2 µM); 1.08 in assay [1] (first compound 0.6325 µM); 0.711 in assay [1] (first compound 2 µM); 1.13 in assay [2] (first compound 0.02 µM). Also, the relative viability was 1.1 in assay [2] (first compound 0.06325 µM); 1.09 in assay [2] (first compound 0.2 µM); 0.835 in assay [2] (first compound 0.6325 µM); 0.5 in assay [2] (first compound 2 µM); 0.477 in assay [3] (first compound 0.01 µM); 0.519 in assay [3] (first compound 0.03162 µM). The relative viability in assay [3] (first compound 0.1 µM) stood at 0.535; in assay [3] (first compound 0.3162 µM) it was 0.505; in assay [3] (first compound 1 µM) it was 0.503; in assay [4] (first compound 0.01 µM), 0.877; in assay [4] (first compound 0.03162 µM), 0.934; in assay [4] (first compound 0.1 µM) it was 0.941. Moreover, the figures for the relative viability in assay [4] (first compound 0.3162 µM) and in assay [4] (first compound 1 µM) were 0.875 and 1.04, respectively.
